Test results published in patent US12583866B2, “Pyrido[2,3-b][1,4]oxazines or tetrahydropyrido[2,3-b][1,4]oxazepines as IAP antagonists” (BEIGENE, LTD., priority 2020, dated 2026).

Tests used:
[1] = target: T1, recombinant human XIAP-BIR3 protein (Homo sapiens, UniProt P98170); experiment: Recombinant human XIAP-BIR3 biochemical assay (HTRF, peptide displacement); conditions: 3.7 nM XIAP-BIR3, 7.6 nM AbuRPF-K(5-Fam)-NH2 peptide, read-out: Protein binding IC50 (nM) XIAP
T1 construct: recombinant human XIAP-BIR3 protein; purchased Reaction biology APT-11-374
T1 sequence (P98170 241-356 limits assumed): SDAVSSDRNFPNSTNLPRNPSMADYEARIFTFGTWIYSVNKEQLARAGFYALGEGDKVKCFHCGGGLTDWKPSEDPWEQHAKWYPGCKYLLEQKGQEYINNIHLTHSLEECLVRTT
Method in brief: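 HTRF peptide displacement with 7.6 nM 5-Fam-labelled AbuRPF peptide, anti-6His Tb donor and 3.7 nM recombinant XIAP-BIR3. Protein and compound (10-point, 4-fold from 10 µM) were preincubated 1 h RT in HEPES pH 7.5 buffer before each addition, each 1 h. IC50 by four-parameter fit of the 520/490 nm ratio.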

[2] = target: T2, recombinant human cIAP2-BIR3 protein (Homo sapiens, UniProt Q13489); experiment: Recombinant human c-IAP2-BIR3 biochemical assay (HTRF, peptide displacement); conditions: 3.7 nM cIAP2-BIR3, 3.7 nM AbuRPF-K(5-Fam)-NH2 peptide, read-out: Protein binding IC50 (nM) c-IAP2
T2 construct: recombinant human cIAP2-BIR3 protein; purchased Reaction biology APT-11-372
T2 sequence (Q13489 238-349 limits assumed): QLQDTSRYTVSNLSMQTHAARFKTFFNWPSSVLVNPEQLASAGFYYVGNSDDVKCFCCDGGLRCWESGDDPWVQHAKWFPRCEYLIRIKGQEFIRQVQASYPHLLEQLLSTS
Method in brief: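 HTRF peptide-displacement readout (ex337, em520/490 ratio) after sequential 1 h room-temperature steps: compound with 3.7 nM protein, then 3.7 nM 5-Fam-labelled AbuRPF peptide, then Tb-cryptate anti-6His antibody. Buffer pH 7.5 HEPES with NaCl, Tween-20, DTT; 10-point 4-fold dilutions from 10 uM; four-parameter logistic IC50.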

[3] = target: T3, recombinant human cIAP1-BIR3 protein (Homo sapiens, UniProt Q13490); experiment: Recombinant human c-IAP1-BIR3 biochemical assay (HTRF, peptide displacement); conditions: 1.2 nM cIAP1-BIR3, 3 nM AbuRPF-K(5-Fam)-NH2 peptide, read-out: Protein binding IC50 (nM) c-IAP1
T3 construct: recombinant human cIAP1-BIR3 protein; purchased Reaction biology APT-11-370
T3 sequence (Q13490 253-363 limits assumed): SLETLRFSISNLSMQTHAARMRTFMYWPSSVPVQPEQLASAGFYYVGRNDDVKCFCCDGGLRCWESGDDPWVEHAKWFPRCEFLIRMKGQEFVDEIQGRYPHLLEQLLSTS
Method in brief: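 HTRF peptide displacement: after 1 h compound pre-incubation (max 10 uM, 4-fold dilutions, 10 points) with 1.2 nM protein in HEPES pH 7.5 buffer, 3 nM 5-Fam-labelled AbuRPF-K peptide and Tb-anti-6His were each added for 1 h at room temperature. Inhibition taken from 520/490 nm ratio, fitted four-parameter logistic for IC50.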

SMILES	IC50 [1]	IC50 [2]	IC50 [3]
C[C@@H]1CN(CC(=O)N2c3cc(Cc4ccc(F)cc4)c(CO)nc3OC[C@@H]2C)[C@@H](CN2CCOC[C@@H]2C(F)(F)F)CN1 [Compound 91B, 1-((S)-7-(4-fluorobenzyl)-6-(hydroxymethyl)-2-methyl-2,3-dihydro-1H-pyrido[2,3-b][1,4]oxazin-1-yl)-2-((2R,5R)-5-methyl-2-(((R)-3-(trifluoromethyl)morpholino)methyl)piperazin-1-yl)ethan-1-one]	543 nM	108 nM	47 nM
C[C@@H]1CN(CC(=O)N2c3cc(Cc4ccc(F)cc4)c(CN4CCOCC4)nc3OC[C@@H]2C)[C@@H](CN2[C@H](C)COC[C@H]2C)CN1 [Compound 92]	8.7 nM	0.53 nM	0.37 nM
C[C@@H]1CN(CC(=O)N2c3cc(Cc4ccc(F)cc4)c(C(=O)NC[C@@H]4CCCO4)nc3OC[C@@H]2C)[C@@H](CN2[C@H](C)COC[C@H]2C)CN1 [Compound 93]	4.6 nM	0.46 nM	0.19 nM
C[C@@H]1CN(CC(=O)N2c3cc(Cc4ccc(F)cc4)c(C(=O)NC[C@H]4CCCO4)nc3OC[C@@H]2C)[C@@H](CN2[C@H](C)COC[C@H]2C)CN1 [Compound 94, (S)-1-(2-((2R,5R)-2-(((3R,5R)-3,5-dimethylmorpholino)methyl)-5-methylpiperazin-1-yl)acetyl)-7-(4-fluorobenzyl)-2-methyl-N—(((R)-tetrahydrofuran-2-yl)methyl)-2,3-dihydro-1H-pyrido[2,3-b][1,4]oxazine-6-carboxamide]	3.3 nM	0.28 nM	0.16 nM
C[C@@H]1CN(CC(=O)N2c3cc(Cc4ccc(F)cc4)c(C(=O)NC[C@@H]4CCOC4)nc3OC[C@@H]2C)[C@@H](CN2[C@H](C)COC[C@H]2C)CN1 [Compound 95, (S)-1-(2-((2R,5R)-2-(((3R,5R)-3,5-dimethylmorpholino)methyl)-5-methylpiperazin-1-yl)acetyl)-7-(4-fluorobenzyl)-2-methyl-N—(((S)-tetrahydrofuran-3-yl)methyl)-2,3-dihydro-1H-pyrido[2,3-b][1,4]oxazine-6-carboxamide]	2.3 nM	0.25 nM	0.19 nM
C[C@@H]1CN(CC(=O)N2c3cc(Cc4ccc(F)cc4)c(C(=O)NC[C@H]4CCOC4)nc3OC[C@@H]2C)[C@@H](CN2[C@H](C)COC[C@H]2C)CN1 [Compound 96, (S)-1-(2-((2R,5R)-2-(((3R,5R)-3,5-dimethylmorpholino)methyl)-5-methylpiperazin-1-yl)acetyl)-7-(4-fluorobenzyl)-2-methyl-N—(((R)-tetrahydrofuran-3-yl)methyl)-2,3-dihydro-1H-pyrido[2,3-b][1,4]oxazine-6-carboxamide]	3.75 nM	0.23 nM	0.21 nM
C[C@@H]1CN(CC(=O)N2c3cc(Cc4ccc(F)cc4)c(C(=O)NCCN(C)C)nc3OC[C@@H]2C)[C@@H](CN2[C@H](C)COC[C@H]2C)CN1 [Compound 97, (S)—N-(2-(dimethylamino)ethyl)-1-(2-((2R,5R)-2-(((3R,5R)-3,5-dimethylmorpholino)methyl)-5-methylpiperazin-1-yl)acetyl)-7-(4-fluorobenzyl)-2-methyl-2,3-dihydro-1H-pyrido[2,3-b][1,4]oxazine-6-carboxamide]	12.5 nM	0.51 nM	0.27 nM
C[C@@H]1CN(CC(=O)N2c3cc(Cc4ccc(F)cc4)c(C(=O)NCC4CCN(C)CC4)nc3OC[C@@H]2C)[C@@H](CN2[C@H](C)COC[C@H]2C)CN1 [Compound 98, (S)-1-(2-((2R,5R)-2-(((3R,5R)-3,5-dimethylmorpholino)methyl)-5-methylpiperazin-1-yl)acetyl)-7-(4-fluorobenzyl)-2-methyl-N-((1-methylpiperidin-4-yl)methyl)-2,3-dihydro-1H-pyrido[2,3-b][1,4]oxazine-6-carb oxamide]	8.2 nM	0.29 nM	0.13 nM
C[C@@H]1CN(CC(=O)N2c3cc(Cc4ccc(F)cc4)c(C(=O)NCCN4CCN(C)CC4)nc3OC[C@@H]2C)[C@@H](CN2[C@H](C)COC[C@H]2C)CN1 [Compound 99, (S)-1-(2-((2R,5R)-2-(((3R,5R)-3,5-dimethylmorpholino)methyl)-5-methylpiperazin-1-yl)acetyl)-7-(4-fluorobenzyl)-2-methyl-N-(2-(4-methylpiperazin-1-yl)ethyl)-2,3-dihydro-1H-pyrido[2,3-b][1,4]oxazine-6-carboxamide]	12.4 nM	0.43 nM	0.16 nM
C[C@@H]1CN(CC(=O)N2c3cc(Cc4ccc(F)cc4)c(C(=O)N4CC[C@H](F)C4)nc3OC[C@@H]2C)[C@@H](CN2[C@H](C)COC[C@H]2C)CN1 [Compound 100, 2-((2R,5R)-2-(((3R,5R)-3,5-dimethylmorpholino)methyl)-5-methylpiperazin-1-yl)-1-((S)-7-(4-fluorobenzyl)-6-((S)-3-fluoropyrrolidine-1-carbonyl)-2-methyl-2,3-dihydro-1H-pyrido[2,3-b][1,4]oxazin-1-yl)ethan-1-one]	4.2 nM	0.44 nM	0.17 nM
C[C@@H]1CN(CC(=O)N2c3cc(Cc4ccc(F)cc4)c(C(=O)N4CC[C@@H](F)C4)nc3OC[C@@H]2C)[C@@H](CN2[C@H](C)COC[C@H]2C)CN1 [Compound 101, 2-((2R,5R)-2-(((3R,5R)-3,5-dimethylmorpholino)methyl)-5-methylpiperazin-1-yl)-1-((S)-7-(4-fluorobenzyl)-6-((R)-3-fluoropyrrolidine-1-carbonyl)-2-methyl-2,3-dihydro-1H-pyrido[2,3-b][1,4]oxazin-1-yl)ethan-1-one]	2.5 nM	0.37 nM	0.19 nM
C[C@@H]1CN(CC(=O)N2c3cc(Cc4ccc(F)cc4)c(C(=O)N4CCCCC4)nc3OC[C@@H]2C)[C@@H](CN2[C@H](C)COC[C@H]2C)CN1 [Compound 102, 2-((2R,5R)-2-(((3R,5R)-3,5-dimethylmorpholino)methyl)-5-methylpiperazin-1-yl)-1-((S)-7-(4-fluorobenzyl)-2-methyl-6-(piperidine-1-carbonyl)-2,3-dihydro-1H-pyrido[2,3-b][1,4]oxazin-1-yl)ethan-1-one]	5.7 nM	0.49 nM	0.24 nM
C[C@@H]1CN(CC(=O)N2c3cc(Cc4ccc(F)cc4)c(C(=O)N4CCC(F)(F)CC4)nc3OC[C@@H]2C)[C@@H](CN2[C@H](C)COC[C@H]2C)CN1 [Compound 103, 1-((S)-6-(4,4-difluoropiperidine-1-carbonyl)-7-(4-fluorobenzyl)-2-methyl-2,3-dihydro-1H-pyrido[2,3-b][1,4]oxazin-1-yl)-2-((2R,5R)-2-(((3R,5R)-3,5-dimethylmorpholino)methyl)-5-methylpiperazin-1-yl)ethan-1-one]	5.1 nM	0.43 nM	0.24 nM
C[C@@H]1CN(CC(=O)N2c3cc(Cc4ccc(F)cc4)c(C(=O)N4CCN(C)CC4)nc3OC[C@@H]2C)[C@@H](CN2[C@H](C)COC[C@H]2C)CN1 [Compound 104]	18.1 nM	0.83 nM	0.26 nM
C[C@@H]1CN(CC(=O)N2c3cc(Cc4ccc(F)cc4)c(CO)nc3OC[C@@H]2C)[C@@H](CN2[C@H](C)CN(C)C[C@H]2C)CN1 [Compound 105, 1-((S)-7-(4-fluorobenzyl)-6-(hydroxymethyl)-2-methyl-2,3-dihydro-1H-pyrido[2,3-b][1,4]oxazin-1-yl)-2-((2R,5R)-5-methyl-2-(((2R,6R)-2,4,6-trimethylpiperazin-1-yl)methyl)piperazin-1-yl)ethan-1-one]	11.3 nM	0.35 nM	0.28 nM
C[C@@H]1CN(CC(=O)N2c3cc(Cc4ccc(F)cc4)c(N4CCOCC4)nc3OC[C@@H]2C)[C@@H](CN2[C@H](C)COC[C@H]2C)CN1 [Compound 106, 2-((2R,5R)-2-(((3R,5R)-3,5-dimethylmorpholino)methyl)-5-methylpiperazin-1-yl)-1-((S)-7-(4-fluorobenzyl)-2-methyl-6-morpholino-2,3-dihydro-1H-pyrido[2,3-b][1,4]oxazin-1-yl)ethan-1-one]	16.9 nM	0.94 nM	0.33 nM
C[C@@H]1CN(CC(=O)N2c3cc(Cc4ccc(F)cc4)c(OCCO)nc3OC[C@@H]2C)[C@@H](CN2[C@H](C)COC[C@H]2C)CN1 [Compound 107]	4.4 nM	0.41 nM	0.23 nM
COCCNc1nc2c(cc1Cc1ccc(F)cc1)N(C(=O)CN1C[C@@H](C)NC[C@@H]1CN1[C@H](C)COC[C@H]1C)[C@@H](C)CO2 [Compound 108]	7.7 nM	0.57 nM	0.16 nM
C[C@@H]1CN(CC(=O)N2c3cc(Cc4ccc(F)cc4)c(NCCO)nc3OC[C@@H]2C)[C@@H](CN2[C@H](C)COC[C@H]2C)CN1 [Compound 109]	10.3 nM	0.45 nM	0.24 nM
